Results taken from ChEMBL document CHEMBL1131339 (J Med Chem, 1998).

Experiments:
Melatonin receptor = Melatonin receptor (Gallus gallus, UniProt P49288+P51050+P49285); experiment: Binding affinity towards melatonin receptor, determined in chicken brain membranes using [2-125I]melatonin; format: cell membranes, Membrane
Melanophore [1] = experiment: Effective concentration required to produce 50% of the maximal pigment aggregation in Xenopus laevis dermal melanophore cell line; No agonist effect detected at 100 uM; format: functional, cell-based, frog
Melanophore [2] = experiment: Inhibitory concentration against melatonin-induced pigment aggregation by 50% in Xenopus laevis dermal melanophore cell line; format: functional, cell-based, frog
Melanophore [3] = experiment: Effective concentration required to produce 50% of the maximal pigment aggregation in Xenopus laevis dermal melanophore cell line; format: functional, cell-based, frog
Melanophore [4] = experiment: Inhibitory concentration against melatonin-induced pigment aggregation by 50% in Xenopus laevis dermal melanophore cell line; Antagonism detected at 100 uM but IC50 not calculated; format: functional, cell-based, frog

SMILES | Ki (Melatonin receptor) [nM] | EC50 (Melanophore [1]) | IC50 (Melanophore [2]) | EC50 (Melanophore [3]; Xenopus laevis, Melanophore) [nM] | EC50 (Melanophore [3]; melanophore) [nM] | IC50 (Melanophore [4])
COc1ccc2c(c1)c1c(n2C)CCCCC1CNC(=O)C1CCC1 (configuration not stated) | 144.8 | Not Active | 18000 nM | – | – | –
CCC(=O)NCC1CCCc2c1c1cc(C)ccc1n2C (configuration not stated) | 7.66 | – | Not Active | 128 | – | –
CCC(=O)NCC1CCCCc2c1c1cc(OC)ccc1n2C (single isomer, unassigned; (+)) | 201.5 | Not Active | Not Active | – | – | –
CCCCC(=O)NCC1CCCCc2c1c1ccccc1n2C (configuration not stated) | 8300 | Not Active | 42000 nM | – | – | –
CCCCC(=O)NCC1CCCc2c1c1ccccc1n2C (configuration not stated) | > 10000 | Not Active | 17000 nM | – | – | –
CCC(=O)NCC1CCCc2c1c1ccccc1n2C (configuration not stated) | 204 | – | Not Active | 862 | – | –
CCC(=O)NC1CCc2[nH]c3ccccc3c2C1 (configuration not stated) | – | – | Not Active | 3270 | – | –
CCC(=O)NCC1CCc2c1c1cc(OC)ccc1n2C (stereo in doubt; 10i) | 16 | – | – | – | 408 | –
CCC(=O)NCC1CCc2c1c1cc(OC)ccc1n2C (single isomer, unassigned; (+)) | 243 | – | Not Active | – | 789 | –
CCC(=O)NCC1CCCCc2c1c1cc(OC)ccc1n2C (stereo in doubt; 11i(-)) | 6.5 | – | – | – | 118 | –
COc1ccc2[nH]cc(CCNC(C)=O)c2c1 [MELATONIN] | – | – | Not Active | 0.23 | – | –
CC(=O)NCC1CCCc2c1c1ccccc1n2C (single isomer, unassigned; (-)) | 40 | – | – | – | 189 | –
CCC(=O)NCC1CCCCc2c1c1ccccc1n2C (configuration not stated) | 129 | Not Active | – | – | – | Antagonist
O=C(NCCc1c(-c2ccccc2)[nH]c2ccccc12)C1CCC1 | 565 | Not Active | 3400 nM | – | – | –
Cn1c2c(c3ccccc31)C(CNC(=O)C1CC1)CC2 (configuration not stated) | 5100 | Not Active | 59000 nM | – | – | –
Cn1c2c(c3ccccc31)C(CNC(=O)C(F)(F)F)CC2 (configuration not stated) | > 10000 | Not Active | Not Active | – | – | –
CCCCC(=O)NCC1CCCCc2c1c1cc(OC)ccc1n2C (configuration not stated) | 471 | Not Active | 39000 nM | – | – | –
CCC(=O)NCC1CCCc2c1c1cc(OC(F)(F)F)ccc1n2C (configuration not stated) | 40.2 | – | 6000 nM | 733 | – | –

SMILES | Ki (Melatonin receptor) [nM] | EC50 (Melanophore [1]) | IC50 (Melanophore [2]) | EC50 (Melanophore [3]; Xenopus laevis, Melanophore) [nM] | EC50 (Melanophore [3]; melanophore) [nM] | IC50 (Melanophore [4])
COc1ccc2c(c1)c1c(n2C)CCCC1CNC(=O)C(F)(F)F (configuration not stated) | 1.98 | – | Not Active | 2.1 | – | –
COc1ccc2[nH]c3c(c2c1)CC(NC(=O)CBr)CC3 (configuration not stated) | – | – | 11000 nM | 32 | – | –
CCCC(=O)NCC1CCc2c1c1ccccc1n2C (configuration not stated) | 239 | – | – | 2630 | – | Antagonist
Cn1c2c(c3ccccc31)C(CNC(=O)C(F)(F)F)CCC2 (configuration not stated) | > 10000 | Not Active | 35000 nM | – | – | –
Cn1c2c(c3cc(OC(F)(F)F)ccc31)C(CNC(=O)C1CCC1)CCC2 (configuration not stated) | 1240 | Not Active | 41000 nM | – | – | –
Cn1c2c(c3cc(Cl)ccc31)C(CNC(=O)C1CC1)CCC2 (configuration not stated) | 131.6 | – | 33000 nM | 1510 | – | –
COc1ccc2c(c1)c1c(n2C)CCCC1CNC(C)=O (single isomer, unassigned; (-)) | 0.372 | – | – | – | 0.3 | –
Cc1ccc2c(c1)c1c(n2C)CCCC1CNC(=O)C1CCC1 (configuration not stated) | 555 | – | Not Active | 1450 | – | –
COc1ccc2c(c1)c1c(n2C)CCCC1CNC(C)=O (stereo in doubt; 9g) | – | – | Not Active | – | 0.7 | –
COc1ccc2c(c1)c1c(n2C)CCCCC1CNC(=O)C1CC1 (configuration not stated) | 44.7 | – | 43000 nM | 470 | – | –
CCCCC(=O)NCC1CCc2c1c1ccccc1n2C (configuration not stated) | > 10000 | Not Active | 46000 nM | – | – | –
CCC(=O)NCC1CCCc2c1c1cc(CC)ccc1n2C (configuration not stated) | 27.5 | – | 62000 nM | 305 | – | –
CCC(=O)NCC1CCCCc2c1c1cc(OC)ccc1n2C (stereo in doubt; 11i) | 7 | – | – | 91 | – | Antagonist
Cn1c2c(c3ccccc31)C(CNC(=O)C(F)(F)F)CCCC2 (configuration not stated) | > 10000 | Not Active | Not Active | – | – | –
CCCC(=O)NCC1CCCCc2c1c1cc(OC)ccc1n2C (configuration not stated) | 10.3 | – | – | 140 | – | Antagonist
COc1ccc2c(c1)c1c(n2C)CCC1CNC(C)=O (configuration not stated) | 161 | – | Not Active | 423 | – | –
COc1ccc2c(c1)c1c(n2C)CCCC1CNC(=O)C1CC1 (configuration not stated) | 30 | – | 48000 nM | 119 | – | –
